# Reference: patent US8372950B2, “IgG binding peptide” (Kagoshima University, priority 2006, dated 2013)
# Positions of bridges follow the written chain, without caps; N, C: chain ends. Residues, ends and D or L forms follow the SMILES beside them. No end group written: not given here. *: point of attachment. Biotin = O=C1N[C@H]2[C@H](CS[C@H]2CCCCC(=O)*)N1; Ahx = NCCCCCC(=O)O
# Legend:
# human MRA (IgG) = molecular target: T1, human MRA (IgG) (Homo sapiens, UniProt P01857); experiment: dot blotting detection of human MRA (IgG) on nitrocellulose membranes; type: binding
# T1 construct: purchased Chugai Pharmaceutical
# T1 sequence (P01857 1-330 isoform P01857-1, other chains not shown): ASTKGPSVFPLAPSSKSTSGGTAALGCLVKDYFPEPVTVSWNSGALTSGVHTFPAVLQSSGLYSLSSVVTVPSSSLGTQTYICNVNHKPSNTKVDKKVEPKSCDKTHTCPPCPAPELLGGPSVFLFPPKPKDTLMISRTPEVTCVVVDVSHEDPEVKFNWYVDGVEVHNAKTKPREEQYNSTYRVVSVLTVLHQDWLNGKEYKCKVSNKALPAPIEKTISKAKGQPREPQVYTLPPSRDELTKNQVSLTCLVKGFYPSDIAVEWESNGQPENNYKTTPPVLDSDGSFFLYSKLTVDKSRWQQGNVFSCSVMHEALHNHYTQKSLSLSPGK
# Protocol: Specifically, acid-treated human MRA (IgG) and untreated human MRA (IgG) were spotted on nitrocellulose membranes in an amount of 1.5 ng, 3 ng, 6 ng, 12.5 ng, 25 ng, 50 ng, and 100 ng per spot. The membranes were dried for 5 minutes and then 0.5% BSA was added for blocking for 2 hours at room temperature. Here, acid-treated human MRA was prepared by adding 10 μl of 1 M glycine-HCl (pH 2.8) to 100 μl of humanized anti-human IL-6 receptor IgG antibody (MRA) (2000 μg/ml, PBS solution), carrying out incubation at 40° C. for 10 minutes, and then neutralizing it by the addition of 30 μl of 1 M Tris-HCl (pH 8.7).
# The mixture was added to the membranes blocked as described above, followed by 1 hour of reaction. After 3 times of washing with PBS containing 0.1% Tween20, a chemiluminescence reagent (Chemi-Lumi One, Nakalai Tesque) was added. Images were analyzed for detection using a LAS-1000 Image Analyzer (Fuji Film).
# [1] = tested on: human IgG isotypes (hIgG1 to hIgG4); experiment: ELISA assay of biotinylated synthetic peptides on human IgG isotypes; type: binding; conditions: FIG. 7
# Protocol: (§1) The binding activity of the thus obtained biotinylated synthetic peptides to human IgG was assayed by an ELISA assay. The ELISA assay was conducted basically in a manner similar to that in Example 1. Specifically, wells coated with human IgG (100 ng/50 μl/well) were blocked by the addition of 0.5% BSA. A biotinylated synthetic peptide and alkaline phosphatase-labeled streptavidin (SA-AP) were mixed in advance at a molar ratio of 4:1 and then the mixture was added to the well, followed by 1 hour of reaction. Para-nitrophenyl phosphate (Wako) was used for color development. Detection was carried out by measuring absorbance at 405 nm. As a positive control of human IgG, the Fc fragment of hIgG was used. As other control proteins, human IgA and IgE, mouse IgG, IgA, and IgE, hTF, fetal bovine serum (FBS), HSA, BSA, and gelatin were used.
# Furthermore, the binding activity of the biotinylated synthetic peptides to human IgG isotypes (hIgG1 to hIgG4), was assayed similarly by an ELISA assay. As a control protein of human IgG, BSA was used.
# human IgG [2] = experiment: SPR kinetic analysis of binding between synthetic peptides and human IgG; conditions: for association rate constants (ka) / dissociation rate constants (kd) / Kd: biotinylated peptide immobilized on sensor chip SA, human IgG as analyte, 25° C.; for Kd: read-out: Dissociation constants (Kd)
# Protocol: Binding between the synthetic peptide IMGpep-1, IMGpep-1E6Q, IMGpep-4, or IMGpep-4K6R and human IgG was subjected to kinetic analysis of binding using surface plasmon resonance (SPR). SPR analysis was carried out using BIAcore2000 (BIAcore) at 25° C. Necessary reagents and sensor chips were purchased from BIAcore and then used. A 50 μM solution (pH 5) of each of four biotinylated synthetic peptides (IMGpep-1, IMGpep1E6Q, IMGpep4, and IMGpep-4K6R) was injected over a sensor chip SA, so as to immobilize the peptide on the chip. The amount of each peptide to be immobilized was adjusted so that the RU (response unit) ranged from 1500 to 2000. Subsequently, human IgG (analyte) was injected at a flow rate of 10 μl/min and at various concentrations (660 nM, 330 nM, 165 nM, 82 nM, and 41 nM) through flow cells with the aforementioned sensor chips SA on which the biotinylated-peptides had been immobilized. Binding reaction between human IgG and the peptides was measured. Thereafter, washing with running buffer (HBS-T) was conducted and then dissociation reaction was measured. For washing/elution of bound analytes from the sensor chips, 0.2 M glycine-HCl buffer (pH 2.7) was used. Binding parameters were analyzed using BIA evaluation Version 3.2 software.
# human IgG MRA = molecular target: T2, human IgG MRA (Homo sapiens, UniProt P01857); experiment: immunoprecipitation of MRA fractions with IMGpep-4K6R peptide; type: binding
# T2 construct: purchased Chugai Pharmaceutical
# T2 sequence (P01857 1-330 isoform P01857-1, other chains not shown): as above
# Protocol: An immunoprecipitation experiment using an IMGpep-4K6R peptide was conducted by a method similar to that employed in Example 8 for each of an untreated MRA sample, an acid-treated MRA sample (acid treated for 10 minutes at pH 2.2 and 4° C.), a flow-through fraction obtained by passing an acid-treated MRA sample through a biotinylated IMGPep-4K6R peptide-immobilized column, and a purified acid-denatured MRA sample (an adsorbed fraction obtained by passing a human IgG sample subjected to 10 minutes of acid treatment at pH 2.2 and 4° C. through an IMGpep-4K6R peptide-immobilized column). IgG precipitated with the peptide immobilized on magnetic beads was subjected to 12.5% SDS-PAGE and then to CBB staining, and then observed.
# anti-HER2 human IgG = molecular target: T3, anti-HER2 human IgG (Homo sapiens, UniProt P01857); experiment: separation on IMGpep-4K6R-immobilized column; type: binding; conditions: untreated anti-HER2 human IgG sample
# T3 construct: purchased Herceptin
# T3 sequence (P01857 1-330 isoform P01857-1, other chains not shown): as above
# Protocol: Moreover, a biotinylated IMGPep-4K6R peptide (biotin-spacer-[…] (SEQ ID NO: 11)) solution (500 μM, 1 ml) was injected to a HiTrap Streptavidin HP column (GE Healthcare) to prepare the column in which IMGPep-4K6R was immobilized. The antibody sample was injected at a flow rate of 0.4 ml/min to the IMGPep-4K6R-immobilized column. Gradient elution was carried out using from 20 mM phosphate buffered saline (PBS, pH 7.0) containing 0.1 M NaCl to 0.1M glycine-HCl (pH 2.5) containing 0.1 M NaCl.
# human IgG [3] = experiment: ELISA assay of biotinylated synthetic peptides on human IgG; type: binding; conditions: FIG. 6; for binding to human IgG: biotinylated peptide
# Protocol: as §1
# human IgG [4] = experiment: immunoprecipitation of human IgG with peptide- or phage-immobilized magnetic beads; type: binding; conditions: immobilized on magnetic beads, FIG. 9; for immunoprecipitated human IgG: western blotting
# Protocol: The above cloned T7 phage G-1 (1.0×10^12 pfu) subjected to ultracentrifuge purification or a synthetic peptide IMGpep-1 (150 nmol) was immobilized on 3 mg of tosyl-activated M450 Dynabeads magnetic beads (Dynal) via covalent binding to the terminal amino group according to the protocols recommended by the manufacturer. The beads were blocked with a PBS solution containing 0.5% BSA and then added to 1 ml of hIgG/BSA/PBS (10 μg/ml hIgG and 1 mg/ml BSA), followed by 1 hour of reaction at room temperature while mixing the solution via stirring. Beads were washed 3 times with PBST, SDS-sample buffer was added thereto, and then SDS-PAGE fractionation was carried out. Subsequently, they were subjected to western blotting analysis using a biotinylated anti-hIgG goat polyclonal antibody (Goat Anti-hIgG-pAb-biotin; Pharmingen) and SA-HRP, and then human IgG immunoprecipitated by binding to beads was detected.
# Furthermore, immunoprecipitation reaction was similarly carried out using phage clones G-1 415 or IMGpep-2 instead of phage G-1 or IMGpep-1 to detect human IgG. Here, the phage clone G-1 415 (Novagen) is a phage displaying G-1 peptide at all the 415 G10 proteins composing the capsid of T7 phage. Moreover, immunoprecipitation reaction and detection were similarly carried out using an anti-hIgG goat (Fab′)2 fragment, wild-type T7 phage, and BSA, as a control of phage G-1 or IMGpep-1.
# Fc fragment of hIgG = experiment: ELISA assay of biotinylated synthetic peptides on Fc fragment; type: binding, human; conditions: biotinylated peptide, FIG. 6
# Protocol: as §1
# IgG antibody = conditions: literature (DeLano et al.; Dias et al.); cited from earlier work
Molecule,"binding activity to human IgG1, IgG2, IgG3, and IgG4 [1]",association rate constants (ka) (human IgG [2]) [M⁻¹ s⁻¹],dissociation rate constants (kd) (human IgG [2]) [s⁻¹],Kd (human IgG [2]) [nM],binding to human IgG (human IgG [3]),further results
CC(C)C[C@@H]1NC(=O)CNC(=O)[C@H](Cc2c[nH]c3ccccc23)NC(=O)[C@H](C)NC(=O)[C@H](CCCNC(=N)N)NC(=O)[C@@H]2CCCN2C(=O)[C@H](Cc2c[nH]c3ccccc23)NC(=O)[C@H](Cc2ccc(O)cc2)NC(=O)CNC(=O)[C@H]([C@@H](C)O)NC(=O)[C@@H](NC(=O)CNC(=O)CCCCCNC(=O)CCCC[C@@H]2SC[C@@H]3NC(=O)N[C@@H]32)CSSC[C@@H](C(=O)NCC(=O)O)NC1=O [IMGpep-4K6R],strong binding activity,16000,0.00038,24,,"antibody sample sufficiently detected (human MRA (IgG); acid-treated MRA (pH 2.8, 40° C., 10 minutes), K6R(A)): ≤ 1.5 ng/mL; IgG-detection sensitivity and intensity after acid treatment (human MRA (IgG); acid-treated MRA, K6R(A)): greatly enhanced; lowest spot of untreated human MRA (IgG) detected (human MRA (IgG); untreated MRA, K6R(N)): ≤ 1.5 ng/mL; overall signal intensity of the detected spots (human MRA (IgG); untreated MRA, K6R(N)): significantly weak; binding activity to human IgG1 to IgG4 relative to IMGpep-1 and IMGpep-4 [1]: increase to a greater extent; immunoprecipitation of MRA antibody (human IgG MRA; flow-through fraction of acid-treated MRA, lane 4): never observed; immunoprecipitation of MRA antibody (human IgG MRA; untreated MRA, lane 1): not immunoprecipitated; behaviour of IgG on the column (anti-HER2 human IgG): passed through; binding activity compared with the original peptides IMGpep-1 and IMGpep-4 (human IgG [3]): significantly and drastically increased"
GCTGFWEREWGLCG [IMGpep-2],,,,,,immunoprecipitated human IgG (human IgG [4]): clearly observed
CC(C)C[C@@H]1NC(=O)CNC(=O)[C@H](Cc2c[nH]c3ccccc23)NC(=O)[C@H](CCC(=O)O)NC(=O)[C@H](CO)NC(=O)[C@H](CCCNC(=N)N)NC(=O)[C@H](Cc2c[nH]c3ccccc23)NC(=O)[C@H](Cc2ccc(O)cc2)NC(=O)CNC(=O)[C@@H](NC(=O)CNC(=O)CCCCCNC(=O)CCCC[C@@H]2SC[C@@H]3NC(=O)N[C@@H]32)CSSC[C@@H](C(=O)NCC(=O)O)NC1=O [IMGpep-1] ({Biotin-Ahx}-GCGYWRSEWGLCG-OH; disulfide 2-12),strong binding activity,20000,0.00034,17,specifically bound to human IgG,human IgG trapping efficiency compared with IMGpep-2 (human IgG [4]): clearly higher; immunoprecipitated human IgG (human IgG [4]): clearly observed; binding to the Fc fragment of human IgG (Fc fragment of hIgG): bound to the Fc fragment of human IgG
CC(C)C[C@@H]1NC(=O)CNC(=O)[C@H](Cc2c[nH]c3ccccc23)NC(=O)[C@H](CCC(N)=O)NC(=O)[C@H](CO)NC(=O)[C@H](CCCNC(=N)N)NC(=O)[C@H](Cc2c[nH]c3ccccc23)NC(=O)[C@H](Cc2ccc(O)cc2)NC(=O)CNC(=O)[C@@H](NC(=O)CNC(=O)CCCCCNC(=O)CCCC[C@@H]2SC[C@@H]3NC(=O)N[C@@H]32)CSSC[C@@H](C(=O)NCC(=O)O)NC1=O [IMGpep-1E6Q] ({Biotin-Ahx}-GCGYWRSQWGLCG-OH; disulfide 2-12),strong binding activity,15000,0.00031,21,,binding activity to human IgG1 to IgG4 relative to IMGpep-1 and IMGpep-4 [1]: increase to a greater extent; binding activity compared with the original peptides IMGpep-1 and IMGpep-4 (human IgG [3]): significantly and drastically increased
GSGYWRSEWGLSG ({Biotin-Ahx}-GSGYWRSEWGLSG) [IMGpep-1CS],almost completely lose its binding activity,,,,almost lose the binding activity,"detection of spots of untreated human MRA (IgG) (human MRA (IgG); untreated MRA, CS(N)): could not detect any spots; increased response signal due to the binding (human IgG [2]; control ligand immobilized, human IgG injected): never observed"
DCAWHLGELVWCT [Fc-III],,,,,,Kd (IgG antibody): 185 nM
CC(C)C[C@@H]1NC(=O)CNC(=O)[C@H](Cc2c[nH]c3ccccc23)NC(=O)[C@H](C)NC(=O)[C@H](CCCCN)NC(=O)[C@@H]2CCCN2C(=O)[C@H](Cc2c[nH]c3ccccc23)NC(=O)[C@H](Cc2ccc(O)cc2)NC(=O)CNC(=O)[C@H]([C@@H](C)O)NC(=O)[C@@H](NC(=O)CNC(=O)CCCCCNC(=O)CCCC[C@@H]2SC[C@@H]3NC(=O)N[C@@H]32)CSSC[C@@H](C(=O)NCC(=O)O)NC1=O [IMGpep-4] ({Biotin-Ahx}-GCTGYWPKAWGLCG-OH; disulfide 2-13),strong binding activity,14000,0.00041,28,specifically bound to human IgG,binding to the Fc fragment of human IgG (Fc fragment of hIgG): bound to the Fc fragment of human IgG
